Where two headings read alike, the source gives them in different places. Where no end group is shown, it is not given here.

For data set [1] the following is noted: cited from earlier work.
The conditions of data set [2]: in 4 hours; cited from earlier work.
For data set [3] the following is noted: clinical dose, human volunteers; cited from earlier work.
The test system of data set [4] is BALB/c mice. Kind of data set: Multidose cumulative toxicity, mouse survival. It counts as in vivo. The conditions noted are these: repeated maximum sublethal doses.
The nature of data set [5]: Single-dose in vivo toxicity, LD50 determination. Also noted: species or system mouse. The conditions noted are these: BALB/c, mouse, in vivo, ip.
The conditions of data set [6]: clinical dose, mouse serum; cited from earlier work.
For data set [7] the following is noted: cited from earlier work. The source holds these as a separate data set.
Data set [8] concerns BALB/c mice. Kind of data set: Kidney and liver histopathology after multidose treatment. It counts as in vivo, mouse. The conditions noted are these: after 11 maximum sublethal doses.
Data set [9] relates to BALB/c mice. Description: Single-dose in vivo toxicity, LD50 determination. Also noted: species or system mouse.
In data set [10] the test system is A. baumannii (P1270). Description: Time-kill curves in ex vivo whole human blood. The conditions noted are these: in 60 min; Ω76 32 mg/liter, colistin 5 mg/liter.
Data set [11] deals with A. baumannii (P1270). Kind of data set: Radiolabeled phosphate leakage radioassay. In kind it is cell-based. The settings on record: in 60 min; Ω76 32 mg/liter, colistin 5 mg/liter.
Data set [12] has as its system panel of 30 type cultures. Kind of data set: I_score ranking from the MICs of 30 type cultures. The settings on record: number of cultures inhibited with the lowest MIC among the five peptides.
[13] abbreviates: young patient cohort, Walter Reed Army Medical Center.

lactoferrampin: the hemolytic properties entry in data set [1] is given as “display hemolytic properties”.
Take gramicidin S: the hemolytic properties result in data set [1] is reported as “display hemolytic properties”.
Regarding `C[C@@H](O)[C@H]1C(=O)N2C(C(=O)O)=C(S[C@@H]3CN[C@H](C(=O)N(C)C)C3)[C@H](C)[C@H]12` [meropenem], in [2], the CFU reduction is on record as 100 fold. Besides, in [3], the “time above MIC concentrations in serum” value is 5 h.
“H-GIGKFLKKAKKFGKAFVKILKK-NH2 [Pexiganan]”: in [4], the mortality in mice is on record as 100%. Further, the LD50 at 5 days in data set [5] was 60 mg/kg.
Regarding colistin, in [6], the “time above MIC concentrations in serum” value was 100 min. Besides, in [7] (Korean elderly patient cohort, treated for ≥72 hours), the acute kidney injury is 54.6%. For the same compound, in [7] (Turkish elderly patient cohort), the acute kidney injury is listed as 46.1%. Further, in [7] (setting [13]), the acute kidney injury is recorded as 45% and the “cessation of treatment due to nephrotoxicity” value was 21%. In [8], the kidney histology entry was “extensive renal damage” and the liver histology entry is given as “displaying no damage”. For the same compound, in [4], the mortality in mice is given as 50%. In addition, in data set [9] (intraperitoneal, monitored 5 days, linear interpolation), the “LD50 (median lethal dose)” value stood at 30 mg/kg. The maximum sublethal dose in [9] (intraperitoneal, single dose) stood at 16 mg/kg. In addition, the “mortality (mice)” value in data set [9] (single dose of 32 mg/kg) is given as 3 of 5. The compound further displayed a CFU reduction in data set [10] of 32 fold. In data set [11], the intracellular phosphate lost is reported as 25%.
Regarding melittin, the hemolytic properties result in [1] was “display hemolytic properties”.
As for IKALGKKLRKGKKKIGKKVK [Ω93], in [12], the I_score is 1.

Broadly, the LD50 is the dose at which mortality reaches 50%. Read a high LD50 as a less toxic substance.

The values are drawn from paper PMC6656545 (Science Advances, 2019).
